Laboratory results reported in ChEMBL document CHEMBL4819020, “Discovery of [1,2,4]triazolo[1,5-a]pyrimidines derivatives as potential anticancer agents” (Eur J Med Chem, 2021).

What was measured:
MCF7 = experiment: Antiproliferative activity against human MCF7 cells assessed as inhibition of cell proliferation measured after 72 hrs by MTT assay; assay type: functional, cell-based; conditions: MCF7, 72 h
GES1 = experiment: Antiproliferative activity against human GES1 cells assessed as inhibition of cell proliferation measured after 72 hrs by MTT assay; assay type: cell-based; conditions: GES1, 72 h
PC-9 = experiment: Antiproliferative activity against human PC-9 cells assessed as inhibition of cell proliferation measured after 72 hrs by MTT assay; assay type: functional, cell-based; conditions: PC-9, 72 h
MGC-803 = experiment: Antiproliferative activity against human MGC-803 cells assessed as inhibition of cell proliferation measured after 72 hrs by MTT assay; assay type: functional, cell-based; conditions: MGC-803, 72 h

Cc1cc(Nc2cc(-c3ccccc3)[nH]n2)n2nc(SCc3ccc(C(F)(F)F)cc3)nc2n1
IC50 (MCF7): 4.82 µM | IC50 (GES1): 42.7 µM | IC50 (PC-9): 4.24 µM | IC50 (MGC-803): 3.52 µM

Cc1cc(Nc2cc(-c3ccccc3)[nH]n2)n2nc(SCc3ccc(Br)cc3)nc2n1
IC50 (MCF7): 2.72 µM | IC50 (GES1): 39.3 µM | IC50 (PC-9): 4.76 µM | IC50 (MGC-803): 1.11 µM

Cc1cc(Nc2cc(-c3ccccc3)[nH]n2)n2nc(SCc3c(Cl)cccc3Cl)nc2n1
IC50 (MCF7): 3.23 µM | IC50 (GES1): 39.6 µM | IC50 (PC-9): 5.18 µM | IC50 (MGC-803): 5.28 µM

COc1ccc(Cn2ccc(Nc3cc(C)nc4nc(SCc5ccc(Br)cc5)nn34)n2)cc1
IC50 (MCF7): 14.6 µM | IC50 (GES1): > 50 µM | IC50 (PC-9): > 50 µM | IC50 (MGC-803): 12.6 µM

Cc1cc(Nc2cc(-c3ccccc3)[nH]n2)n2nc(SCCc3ccccc3)nc2n1
IC50 (MCF7): 2.7 µM | IC50 (GES1): 37.4 µM | IC50 (PC-9): 4.93 µM | IC50 (MGC-803): 5.62 µM

Cc1cc(Nc2cc(-c3ccccc3)[nH]n2)n2nc(SCc3ccc(Cl)cc3)nc2n1
IC50 (MCF7): 8.26 µM | IC50 (GES1): 31.8 µM | IC50 (PC-9): 6.71 µM | IC50 (MGC-803): 3.95 µM

Cc1nc2nc(SCc3ccc(Cl)cc3)nn2c(Nc2cc(-c3ccccc3)[nH]n2)c1C
IC50 (MCF7): 10.6 µM | IC50 (GES1): 47.2 µM | IC50 (PC-9): > 50 µM | IC50 (MGC-803): 9.05 µM

Cc1cc(Nc2cc(-c3ccccc3)[nH]n2)n2nc(SCc3ccccc3Br)nc2n1
IC50 (MCF7): 3.02 µM | IC50 (GES1): 41.1 µM | IC50 (PC-9): 5.63 µM | IC50 (MGC-803): 3.65 µM

Cc1cc(Nc2ccn(Cc3ccc(F)cc3)n2)n2nc(SCc3ccc(Br)cc3)nc2n1
IC50 (MCF7): 4.28 µM | IC50 (GES1): 40.5 µM | IC50 (PC-9): 19.4 µM | IC50 (MGC-803): 3.07 µM

Cc1cc(Nc2cc(-c3ccccc3)[nH]n2)n2nc(SCc3ccc(F)cc3)nc2n1
IC50 (MCF7): 4.02 µM | IC50 (GES1): 35.5 µM | IC50 (PC-9): 8.11 µM | IC50 (MGC-803): 3.27 µM

Cc1cc(Nc2ccn(Cc3ccc(C(F)(F)F)cc3)n2)n2nc(SCc3ccc(Br)cc3)nc2n1
IC50 (MCF7): 2.28 µM | IC50 (GES1): 30.2 µM | IC50 (PC-9): 5.58 µM | IC50 (MGC-803): 2.59 µM

Cc1cc(Nc2cc(-c3cccs3)[nH]n2)n2nc(SCc3ccc(Br)cc3)nc2n1
IC50 (MCF7): 5.37 µM | IC50 (GES1): 38.7 µM | IC50 (PC-9): 4.89 µM | IC50 (MGC-803): 3.77 µM

Cc1cc(Nc2cc(-c3ccccc3)[nH]n2)n2nc(SCC(=O)c3ccccc3)nc2n1
IC50 (MCF7): 5.24 µM | IC50 (GES1): 33.3 µM | IC50 (PC-9): 4.45 µM | IC50 (MGC-803): 2.58 µM

Cc1cc(Nc2cc(-c3ccccc3)[nH]n2)n2nc(SCC3CC3)nc2n1
IC50 (MCF7): > 50 µM | IC50 (GES1): > 50 µM | IC50 (PC-9): > 50 µM | IC50 (MGC-803): 16.1 µM

Cc1cc(Nc2ccn(Cc3csc4ccc(Cl)cc34)n2)n2nc(SCc3ccc(Br)cc3)nc2n1
IC50 (MCF7): 2.57 µM | IC50 (GES1): 31.4 µM | IC50 (PC-9): 4.35 µM | IC50 (MGC-803): 1.57 µM

Cc1cc(Nc2cc(-c3ccccc3)[nH]n2)n2nc(SCC3CCCCC3)nc2n1
IC50 (MCF7): > 50 µM | IC50 (GES1): > 50 µM | IC50 (PC-9): > 50 µM | IC50 (MGC-803): 12.6 µM

Cc1cc(Nc2ccn(Cc3cccc4ccccc34)n2)n2nc(SCc3ccc(Br)cc3)nc2n1
IC50 (MCF7): 4.31 µM | IC50 (GES1): 30 µM | IC50 (PC-9): 5.66 µM | IC50 (MGC-803): 3.24 µM

Cc1cc(Nc2cc(-c3ccc(F)cc3)[nH]n2)n2nc(SCc3ccc(Br)cc3)nc2n1
IC50 (MCF7): 4.57 µM | IC50 (GES1): 34.1 µM | IC50 (PC-9): 6.21 µM | IC50 (MGC-803): 2.21 µM

Cc1cc(Nc2cc(-c3ccccc3)[nH]n2)n2nc(SCc3nc4ccccc4[nH]3)nc2n1
IC50 (MCF7): 2.73 µM | IC50 (GES1): 27.8 µM | IC50 (PC-9): 4.84 µM | IC50 (MGC-803): 1.79 µM

Cc1cc(Nc2cc(-c3ccccc3)[nH]n2)n2nc(SCc3csc4ccccc34)nc2n1
IC50 (MCF7): 3.47 µM | IC50 (GES1): 29.2 µM | IC50 (PC-9): 4.42 µM | IC50 (MGC-803): 2.28 µM

Cc1cc(Nc2cc(-c3ccccc3)[nH]n2)n2ncnc2n1
IC50 (MCF7): > 50 µM | IC50 (GES1): > 50 µM | IC50 (PC-9): > 50 µM | IC50 (MGC-803): 21.7 µM

Cc1ccc(CSc2nc3nc(C)cc(Nc4cc(-c5ccccc5)[nH]n4)n3n2)cc1
IC50 (MCF7): 7.29 µM | IC50 (GES1): 36.2 µM | IC50 (PC-9): 7.31 µM | IC50 (MGC-803): 6.96 µM

Cc1cc(Nc2cc(-c3ccccc3)[nH]n2)n2nc(SCCCc3ccccc3)nc2n1
IC50 (MCF7): 3.9 µM | IC50 (GES1): 40.2 µM | IC50 (PC-9): 5.03 µM | IC50 (MGC-803): 6.51 µM

Cc1ccc(Cn2ccc(Nc3cc(C)nc4nc(SCc5ccc(Br)cc5)nn34)n2)cc1
IC50 (MCF7): 11.3 µM | IC50 (GES1): > 50 µM | IC50 (PC-9): > 50 µM | IC50 (MGC-803): 7.42 µM

O=c1[nH]cc(F)c(=O)[nH]1 [FLUOROURACIL]
IC50 (MCF7): 5.32 µM | IC50 (GES1): 2.45 µM

CCCCCc1c(C)nc2nc(SCc3ccc(Cl)cc3)nn2c1Nc1cc(-c2ccccc2)[nH]n1
IC50 (MCF7): 6.39 µM | IC50 (GES1): > 50 µM | IC50 (PC-9): > 50 µM | IC50 (MGC-803): 7.14 µM

Cc1cc(Nc2cc(-c3ccccc3)[nH]n2)n2nc(SCc3cccc(Br)c3)nc2n1
IC50 (MCF7): 5.14 µM | IC50 (GES1): > 50 µM | IC50 (PC-9): 8.9 µM | IC50 (MGC-803): 4.82 µM

Cc1cc(Nc2cc(-c3ccccc3)[nH]n2)n2nc(SCc3cc(=O)oc4c3ccc3ccccc34)nc2n1
IC50 (MCF7): 4.28 µM | IC50 (GES1): 28.6 µM | IC50 (PC-9): 3.41 µM | IC50 (MGC-803): 2.07 µM

Cc1cc(Nc2cc(-c3ccc(Cl)cc3)[nH]n2)n2nc(SCc3ccc(Br)cc3)nc2n1
IC50 (MCF7): 3.62 µM | IC50 (GES1): 28.2 µM | IC50 (PC-9): 4.92 µM | IC50 (MGC-803): 2.78 µM

C=CCSc1nc2nc(C)cc(Nc3cc(-c4ccccc4)[nH]n3)n2n1
IC50 (MCF7): > 50 µM | IC50 (GES1): > 50 µM | IC50 (PC-9): > 50 µM | IC50 (MGC-803): 17.2 µM

Cc1cc(Nc2cc(-c3ccccc3)[nH]n2)n2nc(SCc3cccc4ccccc34)nc2n1
IC50 (MCF7): 7.56 µM | IC50 (GES1): 36.3 µM | IC50 (PC-9): 3.95 µM | IC50 (MGC-803): 3.12 µM

Cc1cc(Nc2cc(-c3ccccc3)[nH]n2)n2nc(SCc3ccc([N+](=O)[O-])cc3)nc2n1
IC50 (MCF7): 5.06 µM | IC50 (GES1): 43.6 µM | IC50 (PC-9): 7.98 µM | IC50 (MGC-803): 4.25 µM

C#CCSc1nc2nc(C)cc(Nc3cc(-c4ccccc4)[nH]n3)n2n1
IC50 (MCF7): 21.8 µM | IC50 (GES1): 45.7 µM | IC50 (PC-9): > 50 µM | IC50 (MGC-803): 13.4 µM

COc1ccc(CSc2nc3nc(C)cc(Nc4cc(-c5ccccc5)[nH]n4)n3n2)cc1
IC50 (MCF7): 4.02 µM | IC50 (GES1): 28.2 µM | IC50 (PC-9): 8.11 µM | IC50 (MGC-803): 3.17 µM

Cc1cc(Nc2cc(C(C)(C)C)[nH]n2)n2nc(SCc3ccc(Br)cc3)nc2n1
IC50 (MCF7): 7.29 µM | IC50 (GES1): > 50 µM | IC50 (PC-9): 12.4 µM | IC50 (MGC-803): 5.62 µM

CCCSc1nc2nc(C)cc(Nc3cc(-c4ccccc4)[nH]n3)n2n1
IC50 (MCF7): > 50 µM | IC50 (GES1): > 50 µM | IC50 (PC-9): > 50 µM | IC50 (MGC-803): 12.6 µM

Cc1cc(Nc2ccn(Cc3ccccc3)n2)n2nc(SCc3ccc(Br)cc3)nc2n1
IC50 (MCF7): 15.8 µM | IC50 (GES1): 44.4 µM | IC50 (PC-9): > 50 µM | IC50 (MGC-803): 4.72 µM
